Assay results taken from patent publication US20070105864A1, “Methods for inhibiting protein kinases” (Schering Corporation, priority 2005, published 2007).
pIC50: −log10 of the molar value.

Tests used:
[1] = molecular target: T1, recombinant His-CHK1 (Homo sapiens, UniProt O14757); test: CHK1 SPA Assay; assay type: biochemical; settings: read-out: CHK-1 IC50
T1 construct: His-CHK1, In House Lot P976, MW ˜30 KDa, stored at −80 °C; fused on or other part: His tag
T1 sequence (O14757 1-265 limits assumed): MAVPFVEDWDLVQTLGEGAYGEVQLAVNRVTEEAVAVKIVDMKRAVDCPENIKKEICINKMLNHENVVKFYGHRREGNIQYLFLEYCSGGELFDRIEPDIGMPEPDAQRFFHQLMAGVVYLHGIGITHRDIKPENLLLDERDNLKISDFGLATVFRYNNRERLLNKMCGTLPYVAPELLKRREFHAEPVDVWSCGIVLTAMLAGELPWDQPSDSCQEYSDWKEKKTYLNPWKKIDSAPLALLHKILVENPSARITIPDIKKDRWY
Experimental: An in vitro assay was developed that utilizes recombinant His-CHK1 expressed in the baculovirus expression system as an enzyme source and a biotinylated peptide based on CDC25C as substrate (biotin-[…]).
1) CDC25C Ser 216 C-term Biotinylated peptide substrate (25 mg), stored at −20 °C, Custom Synthesis by Research Genetics: biotin-[…] 2595.4 MW
2) His-CHK1 In House lot P976, 235 ug/mL, stored at −80 °C.
1) Kinase Buffer: 50 mM Tris pH 8.0; 10 mM MgCl2; 1 mM DTT
2) His-CHK1, In House Lot P976, MW ˜30 KDa, stored at −80 °C. […] For 1 plate (100 r×n): dilute 8 μL of 235 μg/mL (7.83 uM) stock in 2 mL Kinase Buffer. This makes a 31 nM mixture. Add 20 μL/well. This makes a final reaction concentration of 6 nM.
3) CDC25C Biotinylated peptide.
Dilute CDC25C to 1 mg/mL (385 uM) stock and store at −20° C. For 1 plate (100 r×n): dilute 10 1L of 1 mg/mL peptide stock in 2 ml Kinase Buffer. This gives a 1.925 μM mix. Add 20 1L/r×n. This makes a final reaction concentration of 385 nM.
For 1 plate (100 r×n): dilute 10 μL of 1 mM ATP (cold) stock and 2 uL fresh P33-ATP (20 μCi) in 5 ml Kinase Buffer. This gives a 2 μM ATP (cold) solution; add 50 μl/well to start the reaction. Final volume is 100 μl/r×n so the final reaction concentrations will be 1 μM ATP (cold) and 0.2 uCi/r×n.
For 1 plate add: To 10 mL Wash Buffer 2 (2M NaCl 1% H3PO4): 1 mL SPA bead slurry (50 mg); Add 100 μL/well
6) Wash buffer 1: 2 M NaCl
7) Wash buffer 2: 2 M NaCl, 1% H3PO4
Dispense 10 μl/r×n to appropriate wells. Add 10 μL 10% DMSO to positive (CHK1+CDC25C+ATP) and negative (CHK1+ATP only) control wells. 2) Thaw enzyme on ice—dilute enzyme to proper concentration in kinase buffer (see Reaction Mixtures) and dispense 20 μl to each well. 3) Thaw the Biotinylated substrate on ice and dilute in kinase buffer (see Reaction Mixtures). Add 20 μL/well except to negative control wells. Instead, add 20 uL Kinase Buffer to these wells. 4) Dilute ATP (cold) and P33-ATP in kinase buffer (see Reaction Mixtures). Add 50 μL/well to start the reaction. 5) Allow the reaction to run for 2 hours at room temperature. 6) Stop reaction by adding 100 uL of the SPA beads/stop solution (see Reaction Mixtures) and leave to incubate for 15 minutes before harvest 7) Place a blank Packard GF/B filter plate into the vacuum filter device (Packard plate harvester) and aspirate […] water through to wet the system. 8) Take out the blank and put in the Packard GF/B filter plate. 9) Aspirate the reaction through the filter plate. 10) Wash: 200 ml each wash; 1× with 2M NaCl; 1× with 2M NaCl/1% H3PO4 11) Allow filter plate to dry 15 min. 12) Put TopSeal-A adhesive on top of filter plate. 13) Run filter plate in Top Count
Settings: • Data mode: CPM • Radio nuclide: Manual SPA:P33 • Scintillator: Liq/plast • Energy Range: Low
(§1) IC50 DETERMINATIONS: Dose-response curves were plotted from inhibition data generated, each in duplicate, from 8 point serial dilutions of inhibitory compounds. Concentration of compound was plotted against % kinase activity, calculated by CPM of treated samples divided by CPM of untreated samples. To generate IC50 values, the dose-response curves were then fitted to a standard sigmoidal curve and IC50 values were derived by nonlinear regression analysis.

[2] = molecular target: T2, Cyclin E/CDK2 (Homo sapiens, UniProt P24941); test: CDK2 Assay (Cyclin E/CDK2 in vitro kinase assay); assay type: biochemical; settings: read-out: CDK2 IC50
T2 construct: made in house; host or cells: SF9 cells (baculovirus co-infection)
From the text: BACULOVIRUS CONSTRUCTIONS: Cyclin E was cloned into pVL1393 (Pharmingen, La Jolla, Calif.) by PCR, with the addition of 5 histidine residues at the amino-terminal end to allow purification on nickel resin. The expressed protein was approximately 45 kDa. CDK2 was cloned into pVL1393 by PCR, with the addition of a haemaglutinin epitope tag at the carboxy-terminal end (YDVPDYAS). The expressed protein was approximately 34 kDa in size.
ENZYME PRODUCTION: Recombinant baculoviruses expressing cyclin E and CDK2 were co-infected into SF9 cells at an equal multiplicity of infection (MOI=5), for 48 hrs. Cells were harvested by centrifugation at 1000 RPM for 10 minutes, then pellets lysed on ice for 30 minutes in five times the pellet volume of lysis buffer containing 50 mM Tris pH 8.0, 1 50 mM NaCl, 1% NP40, 1 mM DTT and protease inhibitors (Roche Diagnostics GmbH, Mannheim, Germany). Lysates were spun down at 15000 RPM for 10 minutes and the supernatant retained. 5 ml of nickel beads (for one liter of SF9 cells) were washed three times in lysis buffer (Qiagen GmbH, Germany). Imidazole was added to the baculovirus supernatant to a final concentration of 20 mM, then incubated with the nickel beads for 45 minutes at 4° C. Proteins were eluted with lysis buffer containing 250 mM imidazole. Eluate was dialyzed overnight in 2 liters of kinase buffer containing 50 mM Tris pH 8.0, 1 mM DTT, 10 mM MgCl2, 100 uM sodium orthovanadate and 20% glycerol. Enzyme was stored in aliquots at −70° C.
IN VITRO KINASE ASSAY: Cyclin E/CDK2 kinase assays were performed in low protein binding 96-well plates (Corning Inc, Corning, N.Y.). Enzyme was diluted to a final concentration of 50 μg/ml in kinase buffer containing 50 mM Tris pH 8.0, 10 mM MgCl2, 1 mM DTT, and 0.1 mM sodium orthovanadate. The substrate used in these reactions was a biotinylated peptide derived from Histone H1 (from Amersham, UK). The substrate was thawed on ice and diluted to 2 μM in kinase buffer. Compounds were diluted in 10% DMSO to desirable concentrations. For each kinase reaction, 20 μl of the 50 µg/ml enzyme solution (1 μg of enzyme) and 20 μl of the 2 μM substrate solution were mixed, then combined with 10 μl of diluted compound in each well for testing. The kinase reaction was started by addition of 50 μl of 2 μM ATP and 0.1 μCi of 33P-ATP (from Amersham, UK). The reaction was allowed to run for 1 hour at room temperature. The reaction was stopped by adding 200 μl of stop buffer containing 0.1% Triton X-100, 1 mM ATP, 5 mM EDTA, and 5 mg/ml streptavidine coated SPA beads (from Amersham, UK) for 15 minutes. The SPA beads were then captured onto a 96-well GF/B filter plate (Packard/Perkin Elmer Life Sciences) using a Filtermate universal harvester (Packard/Perkin Elmer Life Sciences.). Non-specific signals were eliminated by washing the beads twice with 2M NaCl then twice with 2 M NaCl with 1% phosphoric acid. The radioactive signal was then measured using a TopCount 96 well liquid scintillation counter (from Packard/Perkin Elmer Life Sciences).
as §1

| Compound | pIC50 [1] | pIC50 [2] |
| --- | --- | --- |
| Cc1cc(Nc2nc(C3=CCCNC3)cn3c(-c4cnn(C)c4)cnc23)sc1S(=O)(=O)NC1CC1 [drawing 1473] | 8.15 | 5.49 |
| Cc1cc(Nc2nc(C3=CCCNC3)cn3c(-c4cnn(C)c4)cnc23)sc1S(=O)(=O)C(C)C | 8.30 | 5.32 |
| Cc1cc(Nc2nc(C3CCCNC3)cn3c(-c4cnn(C)c4)cnc23)sn1 (stereo not drawn) | 7.89 | 5.96 |
| Cn1cc(-c2cnc3c(Nc4sncc4C(C)(C)C)nc(CCN)cn23)cn1 | 7.96 | 4.85 |
| Cc1cc(Nc2nc(C3=CCCNC3)cn3c(-c4cnn(C)c4)cnc23)sc1S(=O)(=O)N(C)C1CC1 | 7.74 | 4.88 |
| Cc1cc(Nc2nc(C3=CCCNC3)cn3c(-c4cnn(C)c4)cnc23)sc1S(C)(=O)=O | 8.10 | 4.93 |
| Cc1cc(Nc2nc(CC3CCNC3)cn3c(-c4cnn(C)c4)cnc23)sn1 (stereo not drawn) | 8.15 | 6.22 |
| Cc1cc(Nc2nc(C3=CCCNC3)cn3c(-c4cnn(C)c4)cnc23)sc1S(=O)(=O)NCCO | 8.22 | 5.33 |
| CNCCCc1cn2c(-c3cnn(C)c3)cnc2c(Nc2sncc2C)n1 | 8.10 | 5.24 |
